Among the data in PubChem BioAssay AID270 (DTP/NCI, 2004) are T/C values, retold here.

For the assay, the system named is BDF1 mice, s.c. Lewis lung carcinoma, T/C %. Description: NCI In Vivo Anticancer Drug Screen. Data for tumor model Lewis Lung Carcinoma (subcutaneous) in B6D2F1 (BDF1) mice. The method, boiled down: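 Antitumor effect in vivo is scored from survival or tumor burden, reported as treated relative to vehicle controls.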
Setting [1] is: endpoint: mean tumor weight, dose: 0.25 mg/kg/injection, schedule: Q01DX011 (ip), vehicle: saline, higher = larger tumour.
[2] abbreviates: endpoint: mean tumor weight, dose: 0.5 mg/kg/injection, schedule: Q01DX011 (ip), vehicle: saline, higher = larger tumour.

Values joined by “and” are separate entries in the source; they are usually repeats but may differ in a detail not shown here. Equal values may be shown once. Records with an inconclusive call do not appear.

On to `C=C(C)C12CC(C)C34OC5(CCCCCCCC(C)C6C(C)C(OC(=O)c7ccccc7)C(O)(C(O)C7(COC(=O)CCCCCCCCCCCCCCC)OC7C3C1O5)C64)O2` (configuration not stated), for which the T/C runs as follows: (endpoint: median survival time, dose: 1.0 micrograms/kg/injection, schedule: Q01DX009 (ip), vehicle: Klucel (hydroxypropylcellulose) (HPC), higher = longer survival) 93 % of control; (endpoint: median survival time, dose: 1.9 micrograms/kg/injection, schedule: Q01DX009 (ip), vehicle: Klucel (hydroxypropylcellulose) (HPC), higher = longer survival) 209 % of control; (endpoint: median survival time, dose: 2.0 micrograms/kg/injection, schedule: Q01DX009 (ip), vehicle: Klucel (hydroxypropylcellulose) (HPC), higher = longer survival) 86 % of control; (endpoint: median survival time, dose: 3.8 micrograms/kg/injection, schedule: Q01DX009 (ip), vehicle: Klucel (hydroxypropylcellulose) (HPC), higher = longer survival) 208 % of control; (endpoint: median survival time, dose: 4.0 micrograms/kg/injection, schedule: Q01DX009 (ip), vehicle: Klucel (hydroxypropylcellulose) (HPC), higher = longer survival) 97 % of control; (endpoint: median survival time, dose: 7.5 micrograms/kg/injection, schedule: Q01DX009 (ip), vehicle: Klucel (hydroxypropylcellulose) (HPC), higher = longer survival) 209 % of control. Also, the T/C was 96 % of control (endpoint: median survival time, dose: 8.0 micrograms/kg/injection, schedule: Q01DX009 (ip), vehicle: Klucel (hydroxypropylcellulose) (HPC), higher = longer survival); 101 % of control (endpoint: median survival time, dose: 15.0 micrograms/kg/injection, schedule: Q01DX009 (ip), vehicle: Klucel (hydroxypropylcellulose) (HPC), higher = longer survival); 88 % of control (endpoint: median survival time, dose: 16.0 micrograms/kg/injection, schedule: Q01DX009 (ip), vehicle: Klucel (hydroxypropylcellulose) (HPC), higher = longer survival).
In the case of `CCOC(=O)NC1=C(N2CC2)C(=O)C(NC(=O)OCC)=C(N2CC2)C1=O`, the T/C reads like this: (endpoint: median survival time, dose: 0.5 mg/kg/injection, schedule: Q01DX009 (ip), vehicle: saline with Tween-80, higher = longer survival) 110 % of control; (endpoint: median survival time, dose: 0.67 mg/kg/injection, schedule: Q01DX005 (ip), vehicle: saline with Tween-80, higher = longer survival) 92 % of control; (endpoint: median survival time, dose: 2.5 mg/kg/injection, schedule: Q01DX005 (ip), vehicle: saline with Tween-80, higher = longer survival) 91 % of control; (endpoint: median survival time, dose: 3.0 mg/kg/injection, schedule: Q01DX009 (ip), vehicle: saline with Tween-80, higher = longer survival) 100 % of control; (endpoint: median survival time, dose: 3.0 mg/kg/injection, schedule: Q04DX003 (ip), vehicle: saline with Tween-80, higher = longer survival) 86 % of control; (endpoint: median survival time, dose: 4.0 mg/kg/injection, schedule: Q04DX003 (ip), vehicle: saline with Tween-80, higher = longer survival) 93 % of control. In addition, the T/C runs as follows: (endpoint: median survival time, dose: 4.5 mg/kg/injection, schedule: Q01DX009 (ip), vehicle: saline with Tween-80, higher = longer survival) 96 % of control; (endpoint: median survival time, dose: 17.0 mg/kg/injection, schedule: Q01DX001 (ip), vehicle: saline with Tween-80, higher = longer survival) 100 % of control; (endpoint: median survival time, dose: 26.0 mg/kg/injection, schedule: Q01DX001 (ip), vehicle: saline with Tween-80, higher = longer survival) 86 % of control.
For `CC(C)C[CH2][Pb]([Cl])([CH2]CC(C)C)[CH2]CC(C)C`, the T/C runs as follows: (endpoint: median survival time, dose: 0.25 mg/kg/injection, schedule: Q01DX009 (ip), vehicle: Klucel (hydroxypropylcellulose) (HPC), higher = longer survival) 112 % of control; (endpoint: median survival time, dose: 0.5 mg/kg/injection, schedule: Q01DX009 (ip), vehicle: Klucel (hydroxypropylcellulose) (HPC), higher = longer survival) 102 % of control; (endpoint: median survival time, dose: 1.0 mg/kg/injection, schedule: Q01DX009 (ip), vehicle: Klucel (hydroxypropylcellulose) (HPC), higher = longer survival) 93 % of control.
Regarding `Cc1ccc2nc(-c3ccc(N=Cc4ccccc4O)cc3)sc2c1`, under “endpoint: median survival time, dose: 200.0 mg/kg/injection, schedule: Q01DX009 (ip), vehicle: olive oil, sesame oil, peanut oil, higher = longer survival”, the T/C is 87 % of control.
For `C/C=C/c1cc2n(c1)C(=O)c1cc(OC3OC(C)C(NC)C(C)(O)C3O)c(C)c(O)c1NC2O` (configuration not stated), the T/C by setting is: (endpoint: median survival time, dose: 2.0 micrograms/kg/injection, schedule: Q04DX003 (ip), vehicle: saline, higher = longer survival) 102 % of control; (endpoint: median survival time, dose: 4.0 micrograms/kg/injection, schedule: Q04DX003 (ip), vehicle: saline, higher = longer survival) 92 % of control; (endpoint: median survival time, dose: 8.0 micrograms/kg/injection, schedule: Q04DX003 (ip), vehicle: saline, higher = longer survival) 103 % of control; (endpoint: median survival time, dose: 16.0 micrograms/kg/injection, schedule: Q04DX003 (ip), vehicle: saline, higher = longer survival) 95 % of control.
For `COC(=O)C[C@](O)(CCC(C)(C)O)C(=O)O[C@@H]1C(OC)=C[C@]23CCCN2CCc2cc4c(cc2[C@H]13)OCO4`, the T/C runs as follows: under setting [1], 71 % of control; under setting [2], 85 % of control; (endpoint: mean tumor weight, dose: 2.0 mg/kg/injection, schedule: Q01DX011 (ip), vehicle: saline, higher = larger tumour) 68 % of control.
As for `COc1cc(O)c2c(c1)C(=O)c1cc3c(c(O)c1C2=O)C(O)C(OC)C(C)(O)C3=O` (configuration not stated), the T/C was 109 % of control (endpoint: median survival time, dose: 12.5 mg/kg/injection, schedule: Q01DX009 (ip), vehicle: water, higher = longer survival); 95 % of control (endpoint: median survival time, dose: 25.0 mg/kg/injection, schedule: Q01DX009 (ip), vehicle: Klucel (hydroxypropylcellulose) (HPC), higher = longer survival); 89 % of control (endpoint: median survival time, dose: 25.0 mg/kg/injection, schedule: Q01DX009 (ip), vehicle: water, higher = longer survival); 103 % of control (endpoint: median survival time, dose: 50.0 mg/kg/injection, schedule: Q01DX009 (ip), vehicle: Klucel (hydroxypropylcellulose) (HPC), higher = longer survival); 124 % of control (endpoint: median survival time, dose: 50.0 mg/kg/injection, schedule: Q01DX009 (ip), vehicle: water, higher = longer survival); 100 % of control (endpoint: median survival time, dose: 100.0 mg/kg/injection, schedule: Q01DX009 (ip), vehicle: Klucel (hydroxypropylcellulose) (HPC), higher = longer survival). The T/C is, setting by setting: (endpoint: median survival time, dose: 100.0 mg/kg/injection, schedule: Q01DX009 (ip), vehicle: water, higher = longer survival) 103 % of control; (endpoint: median survival time, dose: 200.0 mg/kg/injection, schedule: Q01DX009 (ip), vehicle: water, higher = longer survival) 90 % of control.
On to `O=C1NC2(CCCCC2)C(=O)N1CCN(CCCl)CCCl`, for which the T/C runs as follows: (endpoint: median survival time, dose: 1.5 mg/kg/injection, schedule: Q01DX009 (ip), vehicle: Klucel (hydroxypropylcellulose) (HPC), higher = longer survival) 98 % of control; (endpoint: median survival time, dose: 1.5 mg/kg/injection, schedule: Q01DX009 (ip), vehicle: saline, higher = longer survival) 91 % of control; (endpoint: median survival time, dose: 1.56 mg/kg/injection, schedule: Q01DX009 (ip), vehicle: saline, higher = longer survival) 87 % of control and 93 % of control; (endpoint: median survival time, dose: 3.0 mg/kg/injection, schedule: Q01DX009 (ip), vehicle: Klucel (hydroxypropylcellulose) (HPC), higher = longer survival) 104 % of control; (endpoint: median survival time, dose: 3.0 mg/kg/injection, schedule: Q01DX009 (ip), vehicle: saline, higher = longer survival) 89 % of control; (endpoint: median survival time, dose: 3.12 mg/kg/injection, schedule: Q01DX009 (ip), vehicle: saline, higher = longer survival) 100 % of control. The T/C was 106 % of control (endpoint: median survival time, dose: 6.0 mg/kg/injection, schedule: Q01DX009 (ip), vehicle: saline, higher = longer survival); 111 % of control (endpoint: median survival time, dose: 6.25 mg/kg/injection, schedule: Q01DX009 (ip), vehicle: saline, higher = longer survival); 89 % of control (endpoint: median survival time, dose: 12.0 mg/kg/injection, schedule: Q01DX009 (ip), vehicle: saline, higher = longer survival); 97 % of control (endpoint: median survival time, dose: 12.5 mg/kg/injection, schedule: Q01DX009 (ip), vehicle: saline, higher = longer survival).
For the molecule `COc1cc(OC)cc(-c2cc(=O)c3c(OC)c(OC)c(OC)c(OC)c3o2)c1`, the T/C (endpoint: mean tumor weight, dose: 25.0 mg/kg/injection, schedule: Q01DX011 (sc), vehicle: steriod suspending solution, higher = larger tumour) is 64 % of control; the T/C (endpoint: mean tumor weight, dose: 50.0 mg/kg/injection, schedule: Q01DX011 (sc), vehicle: steriod suspending solution, higher = larger tumour) was 87 % of control; the T/C (endpoint: mean tumor weight, dose: 100.0 mg/kg/injection, schedule: Q01DX011 (sc), vehicle: steriod suspending solution, higher = larger tumour) was 82 % of control; the T/C (endpoint: mean tumor weight, dose: 200.0 mg/kg/injection, schedule: Q01DX011 (sc), vehicle: steriod suspending solution, higher = larger tumour) was 81 % of control.
For `CCCCCCCCCCCCCCCC(=O)OCC1OC(n2ccc(N)nc2=O)C(O)C1O` (configuration not stated), the T/C is 54 % of control (endpoint: median tumor weight (est.), dose: 12.0 mg/kg/injection, schedule: Q01DX015 (ip), vehicle: saline with Tween-80, higher = larger tumour); 66 % of control (endpoint: median tumor weight (est.), dose: 18.0 mg/kg/injection, schedule: Q01DX015 (ip), vehicle: saline with Tween-80, higher = larger tumour); 59 % of control (endpoint: median tumor weight (est.), dose: 27.0 mg/kg/injection, schedule: Q01DX015 (ip), vehicle: saline with Tween-80, higher = larger tumour).
Turning to `C1=Cc2ccccc2CC1`, the T/C runs as follows: (endpoint: mean tumor weight, dose: 133.0 mg/kg/injection, schedule: Q01DX011 (ip), vehicle: other, higher = larger tumour) 121 % of control; (endpoint: mean tumor weight, dose: 200.0 mg/kg/injection, schedule: Q01DX011 (ip), vehicle: other, higher = larger tumour) 46 % of control; (endpoint: mean tumor weight, dose: 300.0 mg/kg/injection, schedule: Q01DX011 (ip), vehicle: other, higher = larger tumour) 45 % of control.
For `COc1ccccc1NC(=O)CSC(N)=O`, the T/C is, setting by setting: (endpoint: mean tumor weight, dose: 125.0 mg/kg/injection, schedule: Q01DX011 (ip), vehicle: carboxymethylcellulose (CMC), higher = larger tumour) 97 % of control; (endpoint: mean tumor weight, dose: 250.0 mg/kg/injection, schedule: Q01DX011 (ip), vehicle: carboxymethylcellulose (CMC), higher = larger tumour) 47 % of control.
As for `CC(C)CCCCCCCCCCCCC(=O)NCC(=O)NC1C(O)C(O)C(Nc2ncnc3nc[nH]c23)OC1C(O)CO` (configuration not stated), the T/C runs as follows: under setting [1], 69 % of control; under setting [2], 54 % of control; (endpoint: mean tumor weight, dose: 1.0 mg/kg/injection, schedule: Q01DX011 (ip), vehicle: saline, higher = larger tumour) 100 % of control.
